Source: patent publication EP4606801A1, “FUSED HETEROCYCLIC COMPOUND AND USE THEREOF” (Chengdu Zenitar Biomedical Technology Co., Ltd., priority 2022, dated 2024)
“And” between values parts separate entries of the source, which are not always exact repeats. Equal values may be shown once. Read-outs that look alike come from different tables or passages of the source.

Assays:
[1] = Pharmacokinetic evaluation of compound in Balb/c mice; type: in vivo; settings: 1 mg/kg, PO; for AUC(0-t) / Cmax / half-life: male, mouse, plasma
Experimental: Sample preparation: About 0.2 mg of the compound was dissolved in 10 µL DMSO, then a sodium chloride injection was added to make a 0.1 mg·mL^-1 solution of the compound for administration.
Three mice were administered the compound intravenously (IV) at a dose of 1 mg·kg^-1, and the other three were administered the compound orally (PO) at the same dose. […] The plasma concentration of the drug was quantitatively analyzed with the LC-MS/MS method, and pharmacokinetic parameters were calculated, including the […] (Cmax), area under the concentration-time curve (AUC(0-t)), half-life (T1/2), clearance (CL), volume of distribution at steady state (Vdss), and bioavailability (F).

[2] = system: BRCA wild-type DLD-1 cells; assay: Anti-proliferative activity assay of cell (CCK8), DLD-1; type: cell-based; settings: Homo sapiens; BRCA wild-type DLD-1 cells, 72 h + 96 h, CCK8; read-out: DLD-1 IC50
PARP2 = molecular target: T1, PARP2 (Homo sapiens, UniProt Q9UGN5); assay: Determination of PARP2 enzyme (histone-coated plate, Biotin-NAD+); type: biochemical; settings: read-out: PARP-2 IC50
T1 construct: purchased BPS 80502
T1 sequence (Q9UGN5 whole entry): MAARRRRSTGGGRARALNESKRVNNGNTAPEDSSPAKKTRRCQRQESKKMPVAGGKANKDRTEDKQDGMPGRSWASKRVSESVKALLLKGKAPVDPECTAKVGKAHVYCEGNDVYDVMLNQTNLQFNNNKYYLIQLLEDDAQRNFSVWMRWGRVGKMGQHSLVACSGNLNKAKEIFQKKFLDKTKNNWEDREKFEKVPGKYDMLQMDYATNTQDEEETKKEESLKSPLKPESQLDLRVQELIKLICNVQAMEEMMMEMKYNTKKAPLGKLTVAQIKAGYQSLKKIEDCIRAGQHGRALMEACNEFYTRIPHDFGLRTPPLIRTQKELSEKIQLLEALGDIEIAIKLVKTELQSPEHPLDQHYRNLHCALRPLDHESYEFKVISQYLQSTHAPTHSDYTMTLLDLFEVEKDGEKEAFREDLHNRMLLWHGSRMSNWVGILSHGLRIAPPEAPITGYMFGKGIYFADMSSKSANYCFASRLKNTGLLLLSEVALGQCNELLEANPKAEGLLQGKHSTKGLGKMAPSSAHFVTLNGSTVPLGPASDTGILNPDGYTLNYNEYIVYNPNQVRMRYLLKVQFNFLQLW
Experimental: • 1.2.1 Preparation of buffer solution: PBST: 1x PBS, 0.05% Tween-20; blocking solution: 1x PBS, 0.05% Tween-20, 5% BSA; reaction buffer solution: 50 mM HEPES (pH 7.5), 0.002% Tween-20, 0.1% BSA, 100 mM NaCl, 2mM DTT. • 1.2.2 Coating: A 100 ng/mL Histone coating solution was prepared by using 1x PBS, 25 uL of the coating solution was transferred to a 384-well reaction plate, and the reaction plate was coated overnight at 4°C. • 1.2.3 Washing: After the coating was completed, the coating solution was discarded, and the reaction plate was washed with the PBST solution by means of transferring 50uL of the PBST solution to the 384-well reaction plate, letting it stand for 5 min, discarding the washing solution, refilling the reaction plate, and repeating the washing process 3 times. Finally, the reaction plate was tapped dry and the next step of blocking was proceeded with. • 1.2.4 Blocking: 50 uL of the blocking solution was transferred to the 384-well reaction plate and set for 1 h. • 1.2.5 Washing: After the blocking was completed, the blocking solution was discarded, the reaction plate was washed 3 times with the PBST solution according to the method in Step 2, and the reaction plate was tapped dry. • 1.2.6 A 25/10× PARP2 solution was prepared, then 10 µL of the PARP2 solution was transferred to the 384-well reaction plate.

PARP5A = molecular target: T2, PARP5A (Homo sapiens, UniProt O95271); assay: Determination of PARP5A enzyme (histone-coated plate, Biotin-NAD+); type: biochemical
T2 construct: purchased BPS 80504
T2 sequence (O95271 1001-1327): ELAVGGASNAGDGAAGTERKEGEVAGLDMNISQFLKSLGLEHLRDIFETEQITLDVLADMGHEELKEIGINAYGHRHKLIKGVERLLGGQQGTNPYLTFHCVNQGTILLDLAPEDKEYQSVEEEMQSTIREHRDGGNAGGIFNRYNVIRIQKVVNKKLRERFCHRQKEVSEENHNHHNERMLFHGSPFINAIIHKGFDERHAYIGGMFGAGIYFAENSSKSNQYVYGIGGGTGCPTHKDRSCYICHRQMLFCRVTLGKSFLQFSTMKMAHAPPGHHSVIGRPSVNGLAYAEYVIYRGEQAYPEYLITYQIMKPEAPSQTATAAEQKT
Experimental: • 1.3.1 Preparation of buffer solution solution: PBST: 1x PBS, 0.05% Tween-20; blocking solution: 1x PBS, 0.05% Tween-20, 5% BSA; reaction buffer solution: 50 mM HEPES (pH 7.5), 0.002% Tween-20, 0.1% BSA, 100 mM NaCl, 2mM DTT. • 1.3.2 Coating: A 100 ng/mL Histone coating solution was prepared by using 1x PBS, 25 uL of the coating solution was transferred to a 384-well reaction plate, and the reaction plate was coated overnight at 4°C. • 1.3.3 Washing: After the coating was completed, the coating solution was discarded, and the reaction plate was washed with the PBST solution by means of transferring 50uL of the PBST solution to the 384-well reaction plate, letting it stand for 5 min, discarding the washing solution, refilling the reaction plate with the PBST solution, and repeating the washing process 3 times. Finally, the reaction plate was tapped dry and the next step of blocking was proceeded with. • 1.3.4 Blocking: 50 uL of the blocking solution was transferred to the 384-well reaction plate and set for 1 h. • 1.3.5 Washing: After the blocking was completed, the blocking solution was discarded, the reaction plate was washed 3 times with the PBST solution according to the method in Step 2, and the reaction plate was tapped dry. • 1.3.6 A 25/10× PARP5A solution was prepared, then 10 µL of the PARP5A solution was transferred to the 384-well reaction plate. For negative control wells, 10 µL of the reaction buffer solution instead was transferred, resulting in the final concentration of PARP5A of 10 nM. • 1.3.7 A 2,000x compound was prepared, 50 nL of the compound was transferred to with echo, 19.95 uL of the reaction buffer solution was added into the compound, mix well, and 5 uL of the mixed compound was transferred to the 384-well reaction plate. • 1.3.8 A 25/10x Biotin-NAD+ solution was prepared, 10uL of the Biotin-NAD+ solution was transferred to the 384-well reaction plate, resulting in a final Biotin-NAD+ concentration of 2uM, and incubated at room temperature for 60 min. • 1.3.9 Washing: After the reaction was completed, the reaction liquid was discarded. The reaction plate was washed 3 times with the PBST solution according to the method in Step 2, and the reaction plate was tapped dry. • 1.3.10 A Stre-HRP solution was prepared by means of diluting it with the blocking solution, 25uL of the Stre-HRP solution was transferred to the reaction plate, and incubated at room temperature for 1 h, resulting the final concentration of Stre-HRP of 0.1 µg/mL. • 1.3.11 Washing: The Stre-HRP solution was discarded, the reaction plate was washed 3 times with the PBST solution according to the method in Step 2, and the reaction plate was tapped dry. • 1.3.12 Color developing: Femto-ECL Substrate A, Femto-ECL Substrate B, and QuantaRed ADHP were mixed in a 50:50:1 ratio.

PARP1 = PARP1 (Homo sapiens, UniProt P09874); assay: Determination of PARP1 enzyme (histone-coated plate, chemiluminescence); type: biochemical
PARP1, sequence (P09874 whole entry): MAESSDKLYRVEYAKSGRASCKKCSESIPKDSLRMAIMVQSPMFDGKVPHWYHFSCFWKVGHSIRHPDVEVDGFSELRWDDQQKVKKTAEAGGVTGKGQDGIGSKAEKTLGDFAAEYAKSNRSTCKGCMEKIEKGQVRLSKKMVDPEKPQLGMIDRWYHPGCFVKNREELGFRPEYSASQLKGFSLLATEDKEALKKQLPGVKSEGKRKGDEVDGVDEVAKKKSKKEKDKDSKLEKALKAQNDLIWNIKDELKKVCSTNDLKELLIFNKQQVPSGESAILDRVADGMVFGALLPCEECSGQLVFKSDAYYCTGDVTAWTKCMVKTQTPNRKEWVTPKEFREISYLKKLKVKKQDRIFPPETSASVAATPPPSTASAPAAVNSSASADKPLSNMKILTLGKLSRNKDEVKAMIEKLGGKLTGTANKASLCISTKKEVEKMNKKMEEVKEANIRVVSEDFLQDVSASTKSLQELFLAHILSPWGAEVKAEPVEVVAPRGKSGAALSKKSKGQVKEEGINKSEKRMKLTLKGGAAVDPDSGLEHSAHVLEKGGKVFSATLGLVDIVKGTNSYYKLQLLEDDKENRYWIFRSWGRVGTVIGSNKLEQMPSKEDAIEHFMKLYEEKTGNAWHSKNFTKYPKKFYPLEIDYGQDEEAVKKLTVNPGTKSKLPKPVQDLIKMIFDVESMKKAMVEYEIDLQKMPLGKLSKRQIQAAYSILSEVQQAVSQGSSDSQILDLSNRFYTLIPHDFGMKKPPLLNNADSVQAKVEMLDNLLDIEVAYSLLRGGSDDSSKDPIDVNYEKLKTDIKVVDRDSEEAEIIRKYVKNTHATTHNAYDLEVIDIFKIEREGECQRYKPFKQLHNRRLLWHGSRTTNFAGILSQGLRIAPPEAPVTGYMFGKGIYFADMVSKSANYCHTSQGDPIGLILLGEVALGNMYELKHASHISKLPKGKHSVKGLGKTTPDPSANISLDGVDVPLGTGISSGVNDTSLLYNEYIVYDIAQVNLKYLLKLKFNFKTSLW

breast cancer MDA-MB-436 = assay: In-vivo pharmacodynamic study on subcutaneous xenograft tumor model of breast cancer MDA-MB-436; set-up: species or system NOD/SCID mice; settings: 100 mg/kg orally once daily
Experimental: Strain: NOD/SCID; Grade: SPF; Source: Beijing Vitron River Bio-technology Co., Ltd.
The cells were washed 3 times with pre-cooled PBS, centrifuged at 300 g for 10 min, collected, re-suspended in PBS, and counted with a blood cell counting chamber, and the cell concentration was adjusted. After cell collection, the cell suspension was pre-cooled on ice. 100 µL of the cell suspension was administered via subcutaneous injection into the dorsal flank of the mice, and the grouped treatment was started when the tumor volume reached 200-300 mm^3.
General observation: Observation of animals: all live experimental animals to be observed; Observation time: twice a day; Observation items: including but not limited to general performance, behavioral status, eyes, mouth, nose and mouth, ears, hair, stool, urine, genitalia and other toxic symptoms; If abnormalities are observed, provide a detailed description.
Animal assay: all viable experimental animals scheduled for assay; Assay time: All animals were weighed before the modeling for test grouping. After modeling, the mice were weighed once every 2 days, and the weight change of the mice was recorded in real time. Effective criteria: tumor volume (TV), relative tumor volume (RTV) and relative tumor growth rate of subcutaneously implanted tumor model. […] The calculation formula of tumor volume (TV) was: TV (mm^3) = a×b2×0.5, where a and b were the long diameter and short diameter, respectively.
The evaluation index for anti-tumor activity was the relative tumor growth rate T/C (%), and the calculation formula was as follows: T/C(%) = TRTV/CRTV × 100%; [formula]
Where, TRTV is relative tumor volume of the treatment group; CRTV is relative tumor volume of the negative control group. Therapeutic evaluation criteria: T/C (%)> 60 is considered ineffective; T/C (%) ≤ 60, and P < 0.05 (through statistical analysis) is considered effective. Measurement of tumor weight and tumor inhibition rate (%): At the end of the treatment period, the animals were euthanize, tumor masses dissected and isolated, tumors weighed, and photographs took. The tumor inhibition rate (%) was calculated by the formula below: [formula]
All raw data within the facility were collected manually according to the experimental scheme and the relevant guidelines of the research institution, or gathered by using a data acquisition system. Manually collected data can be transcribed into software such as Excel for analysis and reporting. The data from each group were quantitative, and the experimental data for each group of animals in the tables were expressed as mean ± standard deviation (Mean ± SD). In the figures, the experimental data ware described as mean ± standard error of the mean (Mean ± SEM). Statistical analysis, including t-tests and survival analysis, was performed by using the software such as EXCEL and GraphPad Prism.
After 24 days of administration, the tumor-bearing mice were anesthetized and euthanized. The tumor tissues were dissected, weighed, and photographed, and the tumor inhibition rate was calculated.

SMILES | Vdss [1] | AUC(0-t) [1] | Cmax [1] | half-life [1] | IC50 [2] | IC50 (PARP2) | IC50 (PARP5A; read-out: PARP-5a IC50) | further results
[2H]C([2H])([2H])NC(=O)c1ccc(C2=CCN(Cc3ccc4nc(CC)c(=O)[nH]c4c3F)CC2)cn1 [Compound 4, 1'-((2-Ethyl-5-fluoro-3-oxo-3,4-dihydroquinoxalin-6-yl)methyl)-N-(methyl-d3)-1',2',3',6'-tetra hydro-[3,4'-bipyridine]-6-carboxamide] | 0.14 L/kg | 122000 ng·h/mL | 7370 ng/mL | 11.5 h | > 10000 nM |  |  | CL [1]: 0.17 mL/min/kg
[2H]C([2H])([2H])NC(=O)c1ccc(C2=CCN(Cc3cnc4cc(CC)c(=O)[nH]c4c3)CC2)c(C)n1 [Compound 8, 1'-((7-ethyl-6-oxo-5,6-dihydro-1,5-naphthyridin-3-yl)methyl)-2-methyl-N-(methyl-d3)-1',2',3', 6'-tetrahydro-[3,4'-bipyridine]-6-carboxamide] | 0.14 L/kg | 42300 ng·h/mL | 5010 ng/mL | 4.1 h |  |  |  | 
[2H]C([2H])([2H])NC(=O)c1ccc(C2=CCN(Cc3cnc4cc(CC)c(=O)[nH]c4c3)CC2)c(F)n1 [Compound 10, 1'-((7-ethyl-6-oxo-5,6-dihydro-1,5-naphthyridin-3-yl)methyl)-2-fluoro-N-(methyl-d3)-1',2',3', 6'-tetrahydro-[3,4'-bipyridine]-6-carboxamide] | 0.15 L/kg | 44600 ng·h/mL | 3840 ng/mL | 4.64 h | > 10000 nM |  |  | 
[2H]C([2H])([2H])NC(=O)c1ccc(C2=CCN(Cc3cnc4cc(C([2H])([2H])C([2H])([2H])[2H])c(=O)[nH]c4c3)CC2)cn1 [Compound 11, 1'-((7-(ethyl-d5)-6-oxo-5,6-dihydro-1,5-naphthyridin-3-yl)methyl)-N (methyl-d3)-1',2',3',6'-tet rahydro-[3,4'-bipyridine]-6-carboxamide] |  |  |  |  |  | > 1000 nM | > 1000 nM | 
[2H]C([2H])([2H])C([2H])([2H])c1cc2ncc(CN3CC=C(c4ccc(C(=O)NC5CC5)nc4)CC3)cc2[nH]c1=O [Compound 12, N-cyclopropyl-1'-((7-(ethyl-d5)-6-oxo-5,6-dihydro-1,5-naphthyridin-3-yl)methyl)-1',2',3',6'-tet rahydro-[3,4'-bipyridine]-6-carboxamide] | 0.70 L/kg | 6950 ng·h/mL | 2290 ng/mL | 3.87 h | > 10000 nM | > 1000 nM | > 1000 nM | PARP-1 inhibition ratio (PARP1): 99.8% and 99.9%; CL [1]: 2.5 mL/min/kg
[2H]C([2H])([2H])C([2H])([2H])c1nc2ccc(CN3CC=C(c4ccc(C(=O)NC)nc4)CC3)c(F)c2[nH]c1=O [Compound 13, 1'-((2-(ethyl-d5)-5-fluoro-3-oxo-3,4-dihydroquinoxalin-6-yl)methyl)-N-methyl-1',2',3',6'-tetra hydro-[3,4'-bipyridine]-6-carboxamide] |  |  |  |  | > 10000 nM | > 1000 nM |  | PARP-1 inhibition ratio (PARP1): 96.1% and 98.5%; IC50 (PARP5A): > 1000 nM
[2H]C([2H])([2H])C([2H])([2H])c1nc2ccc(CN3CC=C(c4ccc(C(=O)NC)nc4F)CC3)c(F)c2[nH]c1=O [Compound 14, 1'-((2-(ethyl-d5)-5-fluoro-3-oxo-3,4-dihydroquinoxalin-6-yl)methyl)-2-fluoro-N-methyl-1',2',3 '6'-tetrahydro-[3,4'-bipyridine]-6-carboxamide] |  |  |  |  | > 10000 nM | > 1000 nM | > 1000 nM | PARP-1 inhibition ratio (PARP1; 10 nM): 98.9%; PARP-1 inhibition ratio (PARP1; 100 nM): 99.1%
[2H]C([2H])([2H])Cc1cc2ncc(CN3CC=C(c4ccc(C(=O)NC)nc4)CC3)cc2[nH]c1=O [Compound 16, 1'-((7-(ethyl-2,2,2-d3)-6-oxo-5,6-dihydro-1,5-naphthyridin-3-yl)methyl)-N-methyl-1',2',3',6'-t etrahydro-[3,4'-bipyridine]-6-carboxamide] |  |  |  |  |  | > 1000 nM | > 1000 nM | 
O=C(c1cc(Cc2n[nH]c(=O)c3ccccc23)ccc1F)N1CCN(C(=O)C2CC2)CC1 [Olaparib, reference compound] |  |  |  |  |  |  |  | RTV (breast cancer MDA-MB-436; 24 days): 2.2; Tumor inhibition rate (%) (breast cancer MDA-MB-436; 24 days): 62.19%; Tumor volume T/C% (breast cancer MDA-MB-436; 24 days): 33.4%; Tumor weight (g) X±SD (breast cancer MDA-MB-436; 24 days): 0.82 ± 0.39 g; Body weight (g) X±SD End (breast cancer MDA-MB-436; End, 24 days): 21.7 ± 1.4 g; Tumor volume (mm^3) X±SD End (breast cancer MDA-MB-436; End, 24 days): 551.5±343.1 mm^3; Body weight (g) X±SD Start (breast cancer MDA-MB-436; Start): 21.9 ± 1.1 g; Tumor volume (mm^3) X±SD Start (breast cancer MDA-MB-436; Start): 250.7±70.0 mm^3
